Assay results published in PMC11842588, “A first-in-class selective inhibitor of ERK1/2 and ERK5 overcomes drug resistance with a single-molecule strategy” (Signal Transduction and Targeted Therapy, 2025).

Experiments:
Test in all cases: Kinase profiling
Type in all cases: biochemical
[1] = target: T1, PAK3(h) (Homo sapiens, UniProt O75914)
T1 construct: purchased Eurofins Cerep SA (KinaseProfiler)
Protocol: (§1) 380 kinases inhibitory activities of SKLB-D18 were conducted by Eurofins Cerep SA. The result was illustrated by kinase tree (http://www.kinhub.org/kinmap/).

[2] = target: T2, ALK4(h) (Homo sapiens, UniProt P36896)
T2 construct: purchased Eurofins Cerep SA (KinaseProfiler)
Protocol: as §1

[3] = target: T3, eEF-2K(h) (Homo sapiens, UniProt O00418)
T3 construct: purchased Eurofins Cerep SA (KinaseProfiler)
Protocol: as §1

[4] = target: T4, TNIK(h) (Homo sapiens, UniProt Q9UKE5)
T4 construct: purchased Eurofins Cerep SA (KinaseProfiler)
Protocol: as §1

[5] = target: T5, EphB1(h) (Homo sapiens, UniProt P54762)
T5 construct: purchased Eurofins Cerep SA (KinaseProfiler)
Protocol: as §1

[6] = target: T6, ALK(h) (Homo sapiens, UniProt Q9UM73)
T6 construct: purchased Eurofins Cerep SA (KinaseProfiler)
Protocol: as §1

[7] = target: T7, MAP4K5(h) (Homo sapiens, UniProt Q9Y4K4)
T7 construct: purchased Eurofins Cerep SA (KinaseProfiler)
Protocol: as §1

[8] = target: T8, Txk(h) (Homo sapiens, UniProt P42681)
T8 construct: purchased Eurofins Cerep SA (KinaseProfiler)
T8 sequence (P42681 whole entry): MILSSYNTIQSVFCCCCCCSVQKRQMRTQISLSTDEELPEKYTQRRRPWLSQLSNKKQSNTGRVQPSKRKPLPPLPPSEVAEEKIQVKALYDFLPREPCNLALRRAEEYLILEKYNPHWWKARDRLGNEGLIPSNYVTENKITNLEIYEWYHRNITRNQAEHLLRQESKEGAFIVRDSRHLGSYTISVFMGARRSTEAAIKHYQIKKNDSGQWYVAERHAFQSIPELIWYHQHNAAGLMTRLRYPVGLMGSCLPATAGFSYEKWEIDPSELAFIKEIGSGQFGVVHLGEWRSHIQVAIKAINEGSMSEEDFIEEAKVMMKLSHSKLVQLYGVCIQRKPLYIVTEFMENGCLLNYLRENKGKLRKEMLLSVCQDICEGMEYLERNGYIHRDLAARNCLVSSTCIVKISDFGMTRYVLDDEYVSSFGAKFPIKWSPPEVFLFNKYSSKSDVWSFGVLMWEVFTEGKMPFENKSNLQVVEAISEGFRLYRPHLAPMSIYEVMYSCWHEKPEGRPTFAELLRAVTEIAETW
Protocol: as §1

[9] = target: T9, Lck(h) activated (Homo sapiens, UniProt P06239)
T9 construct: purchased Eurofins Cerep SA (KinaseProfiler)
Protocol: as §1

[10] = target: T10, PKA(h) (Homo sapiens, UniProt P17612)
T10 construct: purchased Eurofins Cerep SA (KinaseProfiler)
Protocol: as §1

[11] = target: T11, Itk(h) (Homo sapiens, UniProt Q08881)
T11 construct: purchased Eurofins Cerep SA (KinaseProfiler)
Protocol: as §1

[12] = target: T12, PASK(h) (Homo sapiens, UniProt Q96RG2)
T12 construct: purchased Eurofins Cerep SA (KinaseProfiler)
Protocol: as §1

[13] = target: T13, TTBK2(h) (Homo sapiens, UniProt Q6IQ55)
T13 construct: purchased Eurofins Cerep SA (KinaseProfiler)
Protocol: as §1

[14] = target: T14, Plk1(h) (Homo sapiens, UniProt P53350)
T14 construct: purchased Eurofins Cerep SA (KinaseProfiler)
Protocol: as §1

[15] = target: T15, PI3 Kinase (p110b/p85a)(h) (Homo sapiens, UniProt P42338)
T15 construct: purchased Eurofins Cerep SA (KinaseProfiler)
T15 sequence (P42338 whole entry): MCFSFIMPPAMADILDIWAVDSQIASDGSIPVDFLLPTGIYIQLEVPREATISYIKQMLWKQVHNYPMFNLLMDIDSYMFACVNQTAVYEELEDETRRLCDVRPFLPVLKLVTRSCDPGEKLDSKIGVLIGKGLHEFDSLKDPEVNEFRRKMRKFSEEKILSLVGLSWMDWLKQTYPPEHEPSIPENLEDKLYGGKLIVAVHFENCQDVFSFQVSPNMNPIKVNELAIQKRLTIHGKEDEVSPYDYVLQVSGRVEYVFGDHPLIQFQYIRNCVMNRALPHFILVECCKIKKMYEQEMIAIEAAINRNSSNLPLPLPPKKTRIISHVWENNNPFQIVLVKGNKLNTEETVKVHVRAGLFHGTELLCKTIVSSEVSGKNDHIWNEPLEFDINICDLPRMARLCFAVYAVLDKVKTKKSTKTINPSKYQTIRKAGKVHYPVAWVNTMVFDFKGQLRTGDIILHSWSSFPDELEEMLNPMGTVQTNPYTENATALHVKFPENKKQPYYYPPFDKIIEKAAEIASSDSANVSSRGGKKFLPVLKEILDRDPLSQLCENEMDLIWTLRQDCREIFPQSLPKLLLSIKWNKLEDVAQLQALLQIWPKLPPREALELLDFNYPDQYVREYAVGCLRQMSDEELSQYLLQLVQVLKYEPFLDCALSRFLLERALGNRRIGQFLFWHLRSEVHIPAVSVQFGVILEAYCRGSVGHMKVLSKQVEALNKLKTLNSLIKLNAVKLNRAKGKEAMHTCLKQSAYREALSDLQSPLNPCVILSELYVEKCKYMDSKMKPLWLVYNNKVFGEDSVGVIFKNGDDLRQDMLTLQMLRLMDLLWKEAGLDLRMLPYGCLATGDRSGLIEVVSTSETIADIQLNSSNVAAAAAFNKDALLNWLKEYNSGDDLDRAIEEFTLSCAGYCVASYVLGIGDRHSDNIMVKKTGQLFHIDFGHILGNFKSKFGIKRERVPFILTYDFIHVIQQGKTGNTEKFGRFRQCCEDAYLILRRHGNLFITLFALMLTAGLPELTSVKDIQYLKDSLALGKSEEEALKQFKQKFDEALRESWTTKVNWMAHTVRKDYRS
T15 sequence (P27986 whole entry partner): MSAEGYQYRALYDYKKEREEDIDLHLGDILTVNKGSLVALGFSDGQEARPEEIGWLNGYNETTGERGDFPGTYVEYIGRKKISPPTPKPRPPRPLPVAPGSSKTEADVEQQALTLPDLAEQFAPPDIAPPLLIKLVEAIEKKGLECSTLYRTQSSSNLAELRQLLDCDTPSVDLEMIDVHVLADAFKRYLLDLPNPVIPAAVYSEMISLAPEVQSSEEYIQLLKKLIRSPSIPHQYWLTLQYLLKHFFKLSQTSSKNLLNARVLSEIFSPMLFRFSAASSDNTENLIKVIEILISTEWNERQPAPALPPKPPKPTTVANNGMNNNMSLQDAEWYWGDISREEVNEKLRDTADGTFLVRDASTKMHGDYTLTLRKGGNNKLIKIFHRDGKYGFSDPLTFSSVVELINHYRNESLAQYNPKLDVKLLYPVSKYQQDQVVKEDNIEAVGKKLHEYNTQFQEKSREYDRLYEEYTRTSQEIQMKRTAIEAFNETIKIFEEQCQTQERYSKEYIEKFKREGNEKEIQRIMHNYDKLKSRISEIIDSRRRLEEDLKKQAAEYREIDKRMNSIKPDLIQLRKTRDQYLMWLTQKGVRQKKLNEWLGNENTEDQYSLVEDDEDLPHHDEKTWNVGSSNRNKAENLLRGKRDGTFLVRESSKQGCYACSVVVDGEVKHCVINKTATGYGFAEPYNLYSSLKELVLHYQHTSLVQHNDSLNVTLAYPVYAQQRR
Protocol: as §1

[16] = target: T16, ICK(h) (Homo sapiens, UniProt Q9UPZ9)
T16 construct: purchased Eurofins Cerep SA (KinaseProfiler)
Protocol: as §1

[17] = target: T17, ROCK-II(h) (Homo sapiens, UniProt O75116)
T17 construct: purchased Eurofins Cerep SA (KinaseProfiler)
Protocol: as §1

[18] = target: T18, EphA5(h) (Homo sapiens, UniProt P54756)
T18 construct: purchased Eurofins Cerep SA (KinaseProfiler)
Protocol: as §1

[19] = target: T19, CK1γ1(h) (Homo sapiens, UniProt Q9HCP0)
T19 construct: purchased Eurofins Cerep SA (KinaseProfiler)
Protocol: as §1

[20] = target: T20, MARK3(h) (Homo sapiens, UniProt P27448)
T20 construct: purchased Eurofins Cerep SA (KinaseProfiler)
T20 sequence (P27448 whole entry): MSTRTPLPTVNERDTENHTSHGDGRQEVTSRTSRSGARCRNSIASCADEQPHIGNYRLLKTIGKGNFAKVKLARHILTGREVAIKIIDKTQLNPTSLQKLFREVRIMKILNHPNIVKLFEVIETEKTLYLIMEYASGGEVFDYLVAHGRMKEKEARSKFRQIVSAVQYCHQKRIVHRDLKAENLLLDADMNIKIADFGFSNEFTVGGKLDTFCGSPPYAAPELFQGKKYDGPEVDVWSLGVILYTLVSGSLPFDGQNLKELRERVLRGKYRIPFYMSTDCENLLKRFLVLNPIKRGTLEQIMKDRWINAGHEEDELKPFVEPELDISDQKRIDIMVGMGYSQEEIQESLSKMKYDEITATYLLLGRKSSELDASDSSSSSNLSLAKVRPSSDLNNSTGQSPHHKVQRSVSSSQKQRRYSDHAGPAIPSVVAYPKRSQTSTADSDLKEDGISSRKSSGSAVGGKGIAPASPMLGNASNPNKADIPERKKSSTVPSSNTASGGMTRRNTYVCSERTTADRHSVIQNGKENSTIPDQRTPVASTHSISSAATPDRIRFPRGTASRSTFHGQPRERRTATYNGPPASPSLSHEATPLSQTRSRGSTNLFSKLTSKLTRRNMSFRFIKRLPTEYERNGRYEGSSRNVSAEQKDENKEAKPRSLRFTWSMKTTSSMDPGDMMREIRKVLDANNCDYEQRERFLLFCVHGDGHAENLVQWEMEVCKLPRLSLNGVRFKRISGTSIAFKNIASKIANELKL
Protocol: as §1

[21] = target: T21, NIM1(h) (Homo sapiens, UniProt Q8IY84)
T21 construct: purchased Eurofins Cerep SA (KinaseProfiler)
Protocol: as §1

[22] = target: T22, NEK1(h) (Homo sapiens, UniProt Q96PY6)
T22 construct: purchased Eurofins Cerep SA (KinaseProfiler)
Protocol: as §1

[23] = target: T23, CaMKIδ(h) (Homo sapiens, UniProt Q8IU85)
T23 construct: purchased Eurofins Cerep SA (KinaseProfiler)
Protocol: as §1

[24] = target: T24, NLK(h) (Homo sapiens, UniProt Q9UBE8)
T24 construct: purchased Eurofins Cerep SA (KinaseProfiler)
Protocol: as §1

[25] = target: T25, STK39(h) (Homo sapiens, UniProt Q9UEW8)
T25 construct: purchased Eurofins Cerep SA (KinaseProfiler)
Protocol: as §1

[26] = target: T26, HIPK4(h) (Homo sapiens, UniProt Q8NE63)
T26 construct: purchased Eurofins Cerep SA (KinaseProfiler)
Protocol: as §1

[27] = target: T27, CaMKIγ(h) (Homo sapiens, UniProt Q96NX5)
T27 construct: purchased Eurofins Cerep SA (KinaseProfiler)
Protocol: as §1

[28] = target: T28, PAK4(h) (Homo sapiens, UniProt O96013)
T28 construct: purchased Eurofins Cerep SA (KinaseProfiler)
T28 sequence (O96013 whole entry): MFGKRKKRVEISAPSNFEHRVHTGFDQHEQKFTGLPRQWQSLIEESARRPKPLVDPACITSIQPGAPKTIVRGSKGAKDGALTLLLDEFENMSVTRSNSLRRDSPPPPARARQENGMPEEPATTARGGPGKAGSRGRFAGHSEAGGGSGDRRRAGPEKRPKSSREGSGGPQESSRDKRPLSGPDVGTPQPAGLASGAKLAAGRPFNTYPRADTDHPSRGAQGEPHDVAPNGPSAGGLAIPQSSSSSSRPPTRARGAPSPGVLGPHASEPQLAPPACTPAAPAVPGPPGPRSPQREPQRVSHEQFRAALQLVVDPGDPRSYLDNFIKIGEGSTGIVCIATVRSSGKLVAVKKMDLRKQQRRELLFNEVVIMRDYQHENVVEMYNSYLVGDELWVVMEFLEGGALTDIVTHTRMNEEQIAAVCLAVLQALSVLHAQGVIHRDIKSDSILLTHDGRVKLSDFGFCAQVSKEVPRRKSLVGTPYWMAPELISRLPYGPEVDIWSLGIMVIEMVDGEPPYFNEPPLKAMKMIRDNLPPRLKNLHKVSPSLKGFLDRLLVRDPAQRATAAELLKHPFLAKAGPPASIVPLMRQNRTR
Protocol: as §1

[29] = target: T29, CHK2(h) (Homo sapiens, UniProt O96017)
T29 construct: purchased Eurofins Cerep SA (KinaseProfiler)
T29 sequence (O96017 whole entry): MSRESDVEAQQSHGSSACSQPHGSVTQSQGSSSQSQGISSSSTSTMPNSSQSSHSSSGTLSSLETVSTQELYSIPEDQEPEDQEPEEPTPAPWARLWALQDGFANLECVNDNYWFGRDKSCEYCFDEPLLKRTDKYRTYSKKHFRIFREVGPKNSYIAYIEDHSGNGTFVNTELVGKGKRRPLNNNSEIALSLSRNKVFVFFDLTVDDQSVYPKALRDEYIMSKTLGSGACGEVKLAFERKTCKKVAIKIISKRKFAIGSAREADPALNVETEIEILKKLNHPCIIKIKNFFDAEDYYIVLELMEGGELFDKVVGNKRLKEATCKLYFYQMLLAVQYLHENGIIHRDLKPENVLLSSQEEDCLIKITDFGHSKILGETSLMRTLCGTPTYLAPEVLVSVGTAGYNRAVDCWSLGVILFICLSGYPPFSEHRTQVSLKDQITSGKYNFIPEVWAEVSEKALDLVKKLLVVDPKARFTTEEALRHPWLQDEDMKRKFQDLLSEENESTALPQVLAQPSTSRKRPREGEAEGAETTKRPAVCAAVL
Protocol: as §1

[30] = target: T30, MST3(h) (Homo sapiens, UniProt Q9Y6E0)
T30 construct: purchased Eurofins Cerep SA (KinaseProfiler)
Protocol: as §1

[31] = target: T31, GSK3β(h) (Homo sapiens, UniProt P49841)
T31 construct: purchased Eurofins Cerep SA (KinaseProfiler)
Protocol: as §1

[32] = target: T32, JAK2(h) (Homo sapiens, UniProt O60674)
T32 construct: purchased Eurofins Cerep SA (KinaseProfiler)
Protocol: as §1

[33] = target: T33, Aurora-A(h) (Homo sapiens, UniProt O14965)
T33 construct: purchased Eurofins Cerep SA (KinaseProfiler)
Protocol: as §1

[34] = target: T34, CaMKIIα(h) (Homo sapiens, UniProt Q9UQM7)
T34 construct: purchased Eurofins Cerep SA (KinaseProfiler)
Protocol: as §1

[35] = target: T35, CK1γ3(h) (Homo sapiens, UniProt Q9Y6M4)
T35 construct: purchased Eurofins Cerep SA (KinaseProfiler)
Protocol: as §1

[36] = target: T36, PKBβ(h) (Homo sapiens, UniProt P31751)
T36 construct: purchased Eurofins Cerep SA (KinaseProfiler)
Protocol: as §1

[37] = target: T37, Abl(h) (Homo sapiens, UniProt P00519)
T37 construct: purchased Eurofins Cerep SA (KinaseProfiler)
Protocol: as §1

[38] = target: T38, MST4(h) (Homo sapiens, UniProt Q9P289)
T38 construct: purchased Eurofins Cerep SA (KinaseProfiler)
Protocol: as §1

[39] = target: T39, CDK4/cyclinD3(h) (Homo sapiens, UniProt P11802)
T39 construct: purchased Eurofins Cerep SA (KinaseProfiler)
Protocol: as §1

[40] = target: T40, LTK(h) (Homo sapiens, UniProt P29376)
T40 construct: purchased Eurofins Cerep SA (KinaseProfiler)
T40 sequence (P29376 17-864): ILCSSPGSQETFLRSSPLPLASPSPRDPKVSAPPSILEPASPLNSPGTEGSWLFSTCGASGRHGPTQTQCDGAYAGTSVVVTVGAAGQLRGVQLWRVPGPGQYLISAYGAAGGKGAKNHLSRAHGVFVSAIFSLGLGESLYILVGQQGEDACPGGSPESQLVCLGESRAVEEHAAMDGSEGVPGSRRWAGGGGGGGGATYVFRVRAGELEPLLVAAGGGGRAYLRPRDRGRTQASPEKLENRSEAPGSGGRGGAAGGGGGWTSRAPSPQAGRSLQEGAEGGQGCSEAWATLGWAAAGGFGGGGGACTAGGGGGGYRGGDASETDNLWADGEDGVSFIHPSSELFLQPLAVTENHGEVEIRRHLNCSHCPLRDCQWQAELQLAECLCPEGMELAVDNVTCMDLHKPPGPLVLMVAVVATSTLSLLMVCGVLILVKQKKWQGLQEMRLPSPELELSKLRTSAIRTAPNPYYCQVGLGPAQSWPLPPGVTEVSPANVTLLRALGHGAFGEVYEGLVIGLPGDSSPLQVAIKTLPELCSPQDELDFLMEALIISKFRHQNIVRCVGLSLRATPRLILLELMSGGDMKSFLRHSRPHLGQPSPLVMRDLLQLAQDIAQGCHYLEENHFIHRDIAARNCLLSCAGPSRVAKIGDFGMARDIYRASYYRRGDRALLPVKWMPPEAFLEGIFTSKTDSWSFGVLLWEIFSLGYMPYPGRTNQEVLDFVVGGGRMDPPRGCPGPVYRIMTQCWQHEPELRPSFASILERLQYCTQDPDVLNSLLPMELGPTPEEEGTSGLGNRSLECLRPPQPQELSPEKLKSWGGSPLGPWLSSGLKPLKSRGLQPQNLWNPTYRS
Protocol: as §1

[41] = target: T41, SRPK1(h) (Homo sapiens, UniProt Q96SB4)
T41 construct: purchased Eurofins Cerep SA (KinaseProfiler)
Protocol: as §1

Which results are given for `CN(C)Cc1cccc(Nc2ncc(Cl)c(-c3csc(C(=O)NN4CCOCC4)c3)n2)c1` [SKLB-D18, 4-(5-chloro-2-((3-((dimethylamino)methyl)phenyl)amino)pyrimidin-4-yl)-N-morpholinothiophene-2-carboxamide]?
inhibition at 1 µM [1]: 27%; inhibition at 1 µM [2]: 26%; inhibition at 1 µM [3]: -2%; inhibition at 1 µM [4]: 48%; inhibition at 1 µM [5]: 23%; inhibition at 1 µM [6]: 13%; inhibition at 1 µM [7]: 51%; inhibition at 1 µM [8]: 26%; inhibition at 1 µM [9]: 68%; inhibition at 1 µM [10]: 19%; inhibition at 1 µM [11]: 23%; inhibition at 1 µM [12]: 13%; inhibition at 1 µM [13]: 0%; inhibition at 1 µM [14]: -5%; inhibition at 1 µM [15]: 8%; inhibition at 1 µM [16]: 20%; inhibition at 1 µM [17]: 34%; inhibition at 1 µM [18]: 3%; inhibition at 1 µM [19]: 16%; inhibition at 1 µM [20]: 68%; inhibition at 1 µM [21]: 50%; inhibition at 1 µM [22]: 48%; inhibition at 1 µM [23]: 47%; inhibition at 1 µM [24]: 26%; inhibition at 1 µM [25]: 37%; inhibition at 1 µM [26]: 67%; inhibition at 1 µM [27]: 12%; inhibition at 1 µM [28]: 21%; inhibition at 1 µM [29]: 19%; inhibition at 1 µM [30]: 19%; inhibition at 1 µM [31]: 68%; inhibition at 1 µM [32]: 67%; inhibition at 1 µM [33]: 51%; inhibition at 1 µM [34]: -25%; inhibition at 1 µM [35]: 14%; inhibition at 1 µM [36]: -12%; inhibition at 1 µM [37]: 45%; inhibition at 1 µM [38]: 15%; inhibition at 1 µM [39]: 60%; inhibition at 1 µM [40]: 38%; inhibition at 1 µM [41]: -2%
